{
  "source": "patent US20060040312A1",
  "about": "(priority 1999, published 2006)",
  "key": {"[1]": {"test_system": "primary cultures of cortex", "format": "cell-based, rat"}, "[2]": {"test_system": "primary cultures of cortex", "format": "cell-based, rat", "remark": "listed apart in the source"}, "[3]": {"test_system": "cardiac myocytes", "format": "cell-based, rat"}, "[4]": {"test_system": "primary cultures of cortical neurons", "format": "cell-based, rat"}, "[5]": {"test_system": "cardiac ventricular myocytes", "format": "cell-based, rat"}, "[6]": {"test_system": "primary cultures of ventricular myocytes", "format": "cell-based, rat"}, "[7]": {"test_system": "cortex", "format": "cell-based, rat"}, "[8]": {"test_system": "trachea", "format": "cell-based, rat"}, "[9]": {"test_system": "single tracheal, neuronal or myocyte cells", "format": "cell-based, rat"}, "[10]": {"test_system": "primary cultures of cortex", "format": "cell-based, rat", "remark": "listed apart in the source"}, "[11]": {"test_system": "histamine-contracted, isolated Guinea pig tracheal segments"}, "[12]": {"conditions": "rat, in vivo, iv"}, "[13]": {"test_system": "primary cultures of cortex"}, "[14]": {"test_system": "primary cultures of ventricular myocytes"}, "[15]": {"molecular_target": "Shaker H4 potassium channel (Drosophila melanogaster, UniProt P08510)", "sequence (P08510 whole entry)": "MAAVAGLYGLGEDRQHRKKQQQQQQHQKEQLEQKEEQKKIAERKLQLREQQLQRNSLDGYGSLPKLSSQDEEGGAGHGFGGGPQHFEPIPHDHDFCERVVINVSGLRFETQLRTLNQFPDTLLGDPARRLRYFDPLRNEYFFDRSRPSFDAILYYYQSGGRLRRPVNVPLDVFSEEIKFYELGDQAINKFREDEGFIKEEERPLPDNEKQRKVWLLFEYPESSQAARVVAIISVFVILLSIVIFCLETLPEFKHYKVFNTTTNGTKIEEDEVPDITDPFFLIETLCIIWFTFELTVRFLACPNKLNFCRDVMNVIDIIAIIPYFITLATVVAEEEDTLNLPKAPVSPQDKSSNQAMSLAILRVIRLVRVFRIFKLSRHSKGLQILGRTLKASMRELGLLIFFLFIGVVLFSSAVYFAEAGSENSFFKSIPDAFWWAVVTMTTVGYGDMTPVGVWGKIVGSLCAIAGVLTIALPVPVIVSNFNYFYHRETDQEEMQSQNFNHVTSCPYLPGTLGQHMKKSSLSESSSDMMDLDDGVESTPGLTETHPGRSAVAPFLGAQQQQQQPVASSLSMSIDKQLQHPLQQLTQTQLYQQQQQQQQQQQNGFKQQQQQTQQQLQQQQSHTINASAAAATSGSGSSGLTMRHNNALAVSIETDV", "conditions": "cited from earlier work"}, "[16]": {"molecular_target": "T1, Kv1.1 (Homo sapiens, UniProt Q09470)", "T1 construct": "host or cells: oocytes", "conditions": "cited from earlier work"}, "[17]": {"test_system": "cortical cells"}, "[18]": {"test_system": "primary cortical cultures"}, "[19]": {"molecular_target": "Kv1.4 (Homo sapiens, UniProt P22459)", "sequence (P22459 whole entry)": "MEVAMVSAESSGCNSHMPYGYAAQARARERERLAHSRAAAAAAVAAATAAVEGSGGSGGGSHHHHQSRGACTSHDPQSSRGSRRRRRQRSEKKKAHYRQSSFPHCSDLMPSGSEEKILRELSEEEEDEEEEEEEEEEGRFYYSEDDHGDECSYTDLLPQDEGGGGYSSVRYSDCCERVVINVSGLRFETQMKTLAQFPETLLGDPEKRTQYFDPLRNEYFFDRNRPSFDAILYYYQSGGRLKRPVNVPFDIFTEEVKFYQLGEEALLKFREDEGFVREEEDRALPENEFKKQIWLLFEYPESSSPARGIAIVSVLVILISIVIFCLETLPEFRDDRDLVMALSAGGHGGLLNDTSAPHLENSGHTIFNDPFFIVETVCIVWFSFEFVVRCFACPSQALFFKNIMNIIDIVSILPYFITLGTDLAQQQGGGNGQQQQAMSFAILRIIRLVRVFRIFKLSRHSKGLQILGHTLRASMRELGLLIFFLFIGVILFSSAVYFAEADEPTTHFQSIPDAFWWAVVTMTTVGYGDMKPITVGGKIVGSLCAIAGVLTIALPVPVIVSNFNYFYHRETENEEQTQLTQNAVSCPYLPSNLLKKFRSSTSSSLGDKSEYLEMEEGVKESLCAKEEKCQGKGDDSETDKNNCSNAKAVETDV", "conditions": "cited from earlier work"}, "[20]": {"molecular_target": "T2, Kv1.3 (Homo sapiens, UniProt P22001)", "T2 construct": "host or cells: oocytes", "conditions": "cited from earlier work"}, "[21]": {"molecular_target": "F425G Shaker mutation (Drosophila melanogaster, UniProt P08510, F425G)", "sequence (P08510 whole entry F425G)": "as the sequence (P08510 whole entry) above, with F425G counted along it", "conditions": "cited from earlier work"}},
  "note": "Several values for one entry are separate records, joined by “and”; a condition that tells them apart may be missing. Identical values can stand only once. Entries after “also recorded” stand apart in the source; their conditions may differ. Positions of bridges follow the written chain, without caps; N, C: chain ends. Non-standard residues stand in square brackets, D forms with d. Residues, ends and D or L forms follow the SMILES beside them. Hyp = O=C(O)[C@@H]1C[C@@H](O)CN1",
  "data": [
    {"smiles": "CC[C@H](C)[C@@H]1NC(=O)[C@H](CCCNC(=N)N)NC(=O)[C@@H](N)CSSC[C@@H]2NC(=O)[C@@H]3CSSC[C@@H](C(=O)N[C@H](C(=O)O)C(C)C)NC(=O)[C@H](CCCCN)NC(=O)[C@H](CC(N)=O)NC(=O)[C@H](Cc4ccccc4)NC(=O)[C@H](CCCNC(=N)N)NC(=O)[C@H](CC(N)=O)NC(=O)[C@H](CSSC[C@H](NC(=O)[C@H](CCCCN)NC(=O)[C@H](CCC(N)=O)NC(=O)[C@H](CC(N)=O)NC(=O)[C@@H]4C[C@@H](O)CN4C1=O)C(=O)N[C@@H](Cc1ccccc1)C(=O)N[C@@H](CCC(N)=O)C(=O)N[C@@H](Cc1c[nH]cn1)C(=O)N[C@@H](CC(C)C)C(=O)N[C@@H](CC(=O)O)C(=O)N[C@@H](CC(=O)O)C(=O)N3)NC(=O)[C@H](CCCCN)NC(=O)[C@H](CCCNC(=N)N)NC(=O)[C@H](CO)NC2=O", "note": "[κ-PVIIA, kappa-conotoxin PVIIA] (H-CRI[Hyp]NQKCFQHLDDCCSRKCNRFNKCV-OH; disulfide 1-16, 8-20, 15-26)", "values": [
      {"measurement": "change in intracellular K+ concentration (PBFI)", "setting": "[1]", "value": "reduction"},
      {"measurement": "current corrected for cell capacitance", "setting": "[2]", "value": "2.4±0.7", "unit": "pA/pf"},
      {"measurement": "current evoked", "setting": "[2]", "value": "26.2±6.2", "unit": "pA"},
      {"measurement": "reversal potential of the evoked current", "setting": "[2]", "value": "~−20", "unit": "mV"},
      {"measurement": "current corrected for cell capacitance", "setting": "[3]", "value": "4.6±0.4", "unit": "pA/pf"},
      {"measurement": "current evoked", "setting": "[3]", "value": "87.7±5.9", "unit": "pA"},
      {"measurement": "induction of currents", "setting": "[3]", "value": "induces glibenclamide-sensitive currents"},
      {"measurement": "change in intracellular calcium (Fluo-3 fluorescence)", "setting": "[4]", "value": "−2.15±0.95% and −8.8±3.9%"},
      {"measurement": "effect on intracellular calcium (Fluo-3)", "setting": "[4]", "value": "significant reduction"},
      {"measurement": "protection against hypoxia-induced depolarization", "setting": "[5]", "value": "prevented any hypoxia-induced changes in membrane potential; also recorded: strong protective effect; also recorded: confers protection"},
      {"measurement": "protection against hypoxia (intracellular calcium, fluo-3)", "setting": "[6]", "value": "able to provide protection against hypoxia"},
      {"measurement": "protection against hypoxia (intracellular calcium, fluo-3)", "setting": "[7]", "value": "able to provide protection against hypoxia"},
      {"measurement": "protection against hypoxia (intracellular calcium, fluo-3)", "setting": "[8]", "value": "able to provide protection against hypoxia"},
      {"measurement": "protection against hypoxia-induced changes in membrane potential (current-clamp)", "setting": "[9]", "value": "A similar result"},
      {"measurement": "initial glutamate-induced depolarization (current-clamp)", "setting": "[10]", "value": "prevents the initial glutamate-induced depolarization"},
      {"measurement": "relaxation of histamine-contracted tracheal segments", "setting": "[11]", "value": "able to relax"},
      {"measurement": "effect on blood pressure", "setting": "[12]", "value": "no effect"},
      {"measurement": "effect on heart rate", "setting": "[12]", "value": "no effect"},
      {"measurement": "EC50", "setting": "[13]", "value": 0.0008, "unit": "pM"},
      {"measurement": "EC50", "setting": "[14]", "value": 0.0009, "unit": "pM"},
      {"measurement": "block / inhibition of the Shaker channel", "setting": "[15]", "value": "block"},
      {"measurement": "activity on Kv1.1", "setting": "[16]", "value": "no detectable activity; also recorded: no effects"},
      {"measurement": "degree of glutamate-induced excitotoxicity", "setting": "[17]", "value": "effectively reduces the degree of glutamate-induced excitotoxicity in a dose-dependant manner"},
      {"measurement": "protection against delayed cytotoxic effects of glutamate", "setting": "[17]", "value": "very effective protection"},
      {"measurement": "protease activity (cytotoxicity)", "setting": "[18]", "value": "no detectable protease activity"},
      {"measurement": "activity on Kv1.4", "setting": "[19]", "value": "no detectable activity"},
      {"measurement": "effects on Kv1.3", "setting": "[20]", "value": "no effects"},
      {"measurement": "effect of F425G Shaker mutation on toxin affinity / sensitivity", "setting": "[21]", "value": "abolishes"}
    ]}
  ]
}
